Assay results from patent publication US6503881B2 (priority 1996, dated 2003).
Values after ≈ are worked out from the molar mass of the structure shown. Where two headings read alike, the source gives them in different places.

System: bacteria
Settings: for MIC, Peptide: unmodified parent peptide
[1] = A. calcoaceticus AC002, agarose dilution
[2] = E. cloacae ECL007, agarose dilution
[3] = E. coli ECO005, agarose dilution
[4] = E. faecalis EFS001, agarose dilution
[5] = E. faecalis EFS008, agarose dilution
[6] = K. pneumoniae KP001, agarose dilution
[7] = P. aeruginosa PA004, agarose dilution
[8] = S. aureus SA014, agarose dilution
[9] = S. aureus SA093, agarose dilution
[10] = S. epidermidis SE010, agarose dilution
[11] = S. maltophilia SMA002, agarose dilution
[12] = S. marcescens SMS003, agarose dilution

Q: Which results are given for I L K K W P W W P W R R M [MBI 11D12H]?
A: MIC (A. calcoaceticus AC001): >64 µg/mL; MIC (E. cloacae ECL007): >64 µg/mL; MIC (E. coli ECO003): 64 µg/mL; MIC (E. faecalis EFS004): 16 µg/mL; MIC (K. pneumoniae KP002): >64 µg/mL; MIC (P. aeruginosa PA004): >64 µg/mL; MIC (S. aureus SA014): 16 µg/mL; MIC (S. maltophilia SMA002): >64 µg/mL; MIC (S. marcescens SMS004): >64 µg/mL

Q: For “ILKKWPWWPWRRMILKKAGS [MBI 11D5CN]”, which MIC (A. calcoaceticus AC001) is on record?
A: Its MIC is >64 µg/mL.

Q: What about the MIC (E. cloacae ECL007) of the same molecule?
A: The MIC was >64 µg/mL.

Q: What about the MIC (E. coli ECO003) of the same molecule?
A: Its MIC is 64 µg/mL.

Q: What about the MIC (E. faecalis EFS002) of the same molecule?
A: The MIC was 16 µg/mL.

Q: What about the MIC (E. faecium EFM003) of the same molecule?
A: The MIC was 1 µg/mL.

Q: And the MIC (K. pneumoniae KP001)?
A: Its MIC is >64 µg/mL.

Q: What about the MIC (P. aeruginosa PA003) of the same molecule?
A: The MIC was >64 µg/mL.

Q: And the MIC (S. aureus SA005)?
A: Its MIC is 8 µg/mL.

Q: What about the MIC (S. maltophilia SMA001) of the same molecule?
A: The MIC was 64 µg/mL.

Q: What about the MIC (S. marcescens SMS004) of the same molecule?
A: Its MIC is >64 µg/mL.

Q: Which results are given for I L K W P W W P W R K [MBI 11B5CN]?
A: MIC [1]: 4 µg/mL; MIC [2]: >128 µg/mL; MIC [3]: 16 µg/mL; MIC [4]: 2 µg/mL; MIC (E. faecalis EFS002): 16 µg/mL; MIC [5]: 8 µg/mL; MIC (E. faecium EFM002): 1 µg/mL; MIC [6]: 16 µg/mL; MIC [7]: >128 µg/mL; MIC (S. aureus SA005): 2 µg/mL; MIC [8]: 2 µg/mL; MIC [9]: 1 µg/mL; MIC [10]: 1 µg/mL; MIC [11]: 64 µg/mL; MIC [12]: >128 µg/mL

Q: I L K K W P W W P W R R K [MBI 11ACN] was tested. Which MIC (A. calcoaceticus AC002) did it give?
A: The MIC was 2 µg/mL.

Q: What about the MIC (E. cloacae ECL007) of the same molecule?
A: The MIC was >128 µg/mL.

Q: What about the MIC (E. coli ECO005) of the same molecule?
A: The MIC was 16 µg/mL.

Q: What about the MIC (E. faecalis EFS004) of the same molecule?
A: The MIC was 8 µg/mL.

Q: What about the MIC (E. faecalis EFS008) of the same molecule?
A: Its MIC is 64 µg/mL.

Q: What about the MIC (K. pneumoniae KP001) of the same molecule?
A: The MIC was 16 µg/mL.

Q: What about the MIC (P. aeruginosa PA004) of the same molecule?
A: The MIC was >128 µg/mL.

Q: What about the MIC (S. aureus SA014) of the same molecule?
A: Its MIC is 8 µg/mL.

Q: And the MIC (S. epidermidis SE010)?
A: The MIC was 4 µg/mL.

Q: And the MIC (S. maltophilia SMA002)?
A: The MIC was 64 µg/mL.

Q: And the MIC (S. marcescens SMS003)?
A: Its MIC is >128 µg/mL.

Q: I L K K W P W P W R R K [MBI 11A4CN] was tested. Which MIC (A. calcoaceticus AC002) did it give?
A: The MIC was 8 µg/mL.

Q: What about the MIC (E. cloacae ECL007) of the same molecule?
A: Its MIC is >128 µg/mL.

Q: And the MIC (E. coli ECO003)?
A: The MIC was 32 µg/mL.

Q: And the MIC (E. faecalis EFS002)?
A: Its MIC is 64 µg/mL.

Q: What about the MIC (E. faecium EFM001) of the same molecule?
A: Its MIC is 32 µg/mL.

Q: And the MIC (K. pneumoniae KP001)?
A: The MIC was >128 µg/mL.

Q: What about the MIC (P. aeruginosa PA004) of the same molecule?
A: The MIC was >128 µg/mL.

Q: And the MIC (S. aureus SA005)?
A: The MIC was 2 µg/mL.

Q: What about the MIC (S. epidermidis SE002) of the same molecule?
A: Its MIC is 8 µg/mL.

Q: And the MIC (S. maltophilia SMA002)?
A: The MIC was >128 µg/mL.

Q: What about the MIC (S. marcescens SMS004) of the same molecule?
A: Its MIC is >128 µg/mL.

Q: With `CC[C@H](C)[C@H](NC(=O)[C@H](CC(C)C)NC(=O)[C@H](C)NC(=O)[C@@H]1CCCN1C(=O)[C@H](CC(C)C)NC(=O)CNC(=O)[C@@H](NC(=O)[C@@H](NC(=O)[C@H](CC(C)C)NC(=O)[C@@H](NC(=O)[C@H](CCCCN)NC(=O)[C@H](CCCCN)NC(=O)[C@@H](NC(=O)[C@H](C)NC(=O)[C@@H](NC(=O)[C@@H](NC(=O)[C@H](CC(C)C)NC(=O)[C@H](CCCCN)NC(=O)[C@H](CCCCN)NC(=O)[C@@H](NC(=O)[C@H](Cc1ccccc1)NC(=O)[C@H](CO)NC(=O)[C@H](CCCCN)NC(=O)[C@H](Cc1c[nH]c2ccccc12)NC(=O)[C@@H](N)CCCCN)[C@@H](C)CC)[C@@H](C)O)[C@@H](C)O)C(C)C)C(C)C)[C@@H](C)O)[C@@H](C)O)C(=O)N[C@@H](CO)C(=O)O` [MBI29] as the molecule, how does the “MIC, Peptide” value [1] read?
A: Its value is 1 µg/mL (≈ 0.348 µM).

Q: And the “MIC, Peptide” value [2]?
A: Its value is >64 µg/mL.

Q: And the “MIC, Peptide” value (E. coli EC0005, agarose dilution)?
A: Its value is 4 µg/mL (≈ 1.39 µM).

Q: What about the “MIC, Peptide” value [4] of the same molecule?
A: The value was 0.5 µg/mL (≈ 0.174 µM).

Q: What about the “MIC, Peptide” value [5] of the same molecule?
A: Its value is 0.5 µg/mL (≈ 0.174 µM).

Q: And the “MIC, Peptide” value [6]?
A: The value was 2 µg/mL (≈ 0.696 µM).

Q: And the “MIC, Peptide” value [7]?
A: Its value is 16 µg/mL (≈ 5.57 µM).

Q: What about the “MIC, Peptide” value [8] of the same molecule?
A: Its value is 1 µg/mL (≈ 0.348 µM).

Q: What about the “MIC, Peptide” value [9] of the same molecule?
A: Its value is 0.5 µg/mL (≈ 0.174 µM).

Q: What about the “MIC, Peptide” value [10] of the same molecule?
A: Its value is 4 µg/mL (≈ 1.39 µM).

Q: And the “MIC, Peptide” value [11]?
A: The value was 2 µg/mL (≈ 0.696 µM).

Q: What about the “MIC, Peptide” value [12] of the same molecule?
A: Its value is >128 µg/mL.

Q: With I L R R W P W W P W R R R [MBI 11B9ACN] as the molecule, how does the MIC (A. calcoaceticus AC001) read?
A: The MIC was 32 µg/mL.

Q: And the MIC (E. coli ECO003)?
A: Its MIC is 8 µg/mL.

Q: What about the MIC (E. faecalis EFS004) of the same molecule?
A: Its MIC is 8 µg/mL.

Q: What about the MIC (E. faecium EFM001) of the same molecule?
A: Its MIC is 4 µg/mL.

Q: What about the MIC (K. pneumoniae KP002) of the same molecule?
A: The MIC was 32 µg/mL.

Q: What about the MIC (P. aeruginosa PA005) of the same molecule?
A: Its MIC is >128 µg/mL.

Q: What about the MIC (S. aureus SA019) of the same molecule?
A: Its MIC is 2 µg/mL.

Q: What about the MIC (S. epidermidis SE002) of the same molecule?
A: Its MIC is 2 µg/mL.

Q: And the MIC (S. maltophilia SMA001)?
A: The MIC was 16 µg/mL.

Q: And the MIC (S. marcescens SMS004)?
A: The MIC was >128 µg/mL.

Q: Which MIC (A. calcoaceticus AC001) does the source give for L K K W P W W P W R R K [MBI 11D1CN] here?
A: Its MIC is >128 µg/mL.

Q: What about the MIC (E. cloacae ECL007) of the same molecule?
A: The MIC was >128 µg/mL.

Q: And the MIC (E. coli ECO002)?
A: Its MIC is 16 µg/mL.

Q: And the MIC (E. faecalis EFS002)?
A: Its MIC is 32 µg/mL.

Q: What about the MIC (E. faecium EFM001) of the same molecule?
A: Its MIC is 16 µg/mL.

Q: And the MIC (K. pneumoniae KP002)?
A: The MIC was 64 µg/mL.

Q: And the MIC (P. aeruginosa PA003)?
A: The MIC was >128 µg/mL.

Q: What about the MIC (S. aureus SA004) of the same molecule?
A: Its MIC is 2 µg/mL.

Q: What about the MIC (S. epidermidis SE010) of the same molecule?
A: Its MIC is 8 µg/mL.

Q: And the MIC (S. maltophilia SMA001)?
A: Its MIC is 64 µg/mL.

Q: What about the MIC (S. marcescens SMS003) of the same molecule?
A: The MIC was >128 µg/mL.

Q: What does the source list for K R R W P W W P W R L I [MBI 11B7CNR]?
A: MIC (A. calcoaceticus AC002): 4 µg/mL; MIC (E. cloacae ECL007): 64 µg/mL; MIC (E. coli ECO005): 8 µg/mL; MIC (E. faecalis EFS001): 4 µg/mL; MIC (K. pneumoniae KP001): 8 µg/mL; MIC (P. aeruginosa PA004): 64 µg/mL; MIC (S. aureus SA093): 2 µg/mL; MIC (S. epidermidis SE010): 4 µg/mL; MIC (S. maltophilia SMA002): 32 µg/mL; MIC (S. marcescens SMS003): >128 µg/mL

Q: For I L R W P W W P W A R K [MBI 11H10CN], which MIC [1] is on record?
A: The MIC was 4 µg/mL.

Q: What about the MIC [2] of the same molecule?
A: The MIC was >128 µg/mL.

Q: What about the MIC [3] of the same molecule?
A: Its MIC is 16 µg/mL.

Q: What about the MIC [4] of the same molecule?
A: Its MIC is 2 µg/mL.

Q: What about the MIC [5] of the same molecule?
A: The MIC was 8 µg/mL.

Q: And the MIC [6]?
A: Its MIC is 16 µg/mL.

Q: What about the MIC [7] of the same molecule?
A: The MIC was >128 µg/mL.

Q: And the MIC [8]?
A: The MIC was 4 µg/mL.

Q: What about the MIC [9] of the same molecule?
A: The MIC was 1 µg/mL.

Q: What about the MIC [10] of the same molecule?
A: Its MIC is 4 µg/mL.

Q: And the MIC [11]?
A: The MIC was 64 µg/mL.

Q: What about the MIC [12] of the same molecule?
A: Its MIC is >128 µg/mL.

Q: How did the MIC (E. faecalis EFS001) turn out when I L K K W P W W P W R R K [MBI 11M4] was run?
A: The MIC was 32 µg/mL.

Q: And the MIC (E. faecium EFM001)?
A: Its MIC is 32 µg/mL.

Q: And the MIC (S. aureus SA008)?
A: The MIC was 8 µg/mL.
